Results: patent US8088828B2, “Treating benign prostate hyperplasia with SARMS” (priority 2002, dated 2012)

Tests used:
Type in all cases: in vivo, rat
[1] = system: intact male Sprague-Dawley rats; assay: Organ weights in intact male rats after 3, 6 or 9 days of daily subcutaneous injections
Description: Methods: Male Sprague-Dawley rats were purchased from Harlan Biosciences (Indianapolis, Ind.). The animals were maintained on a 12-h cycle of light and dark with food and water available ad libitum. Male Sprague-Dawley rats weighing 189 to 226 g were randomly distributed into groups of 5 animals. The intact male rats were treated with hydroxy-flutamide (0.5, 1, 5, 10 or 25 mg/kg), finasteride (5 mg/kg), Compound VII (0.5, 1, 5, 10, 25 mg/kg) or vehicle for 3, 6, or 9 days. The drugs were dissolved in DMSO:PEG300 (20:80, v:v) and administered via daily subcutaneous injections, and the dosages were adjusted based on animal's body weight, which was measured on a daily basis. A group of castrated rats (n=5) was also included as control for each time point. […] The organ weights were normalized with the body weights. Percentage changes were determined by comparison to intact animals. Statistical analyses of all the parameters were performed by single-factor ANOVA with the alpha value set a priori at p<0.05.

intact male rats = assay: Compound VII 0.5 mg/day in intact male rats, organ weights
[2] = system: intact male Sprague-Dawley rats; assay: Prostate weight in intact Sprague-Dawley rats after 7 days of oral gavage
[3] = 3 days, in general over 0.5, 1, 5, 10, 25 mg/kg s.c.
[4] = 9 days, high doses (5, 10, 25 mg/kg) s.c.

SMILES: C[C@](O)(COc1ccc(F)cc1)C(=O)Nc1ccc([N+](=O)[O-])c(C(F)(F)F)c1 [Compound VII]
- effect on levator ani muscle weight ([1]; 3 days, 0.5, 1, 5, 10, 25 mg/kg s.c.): without affecting
- prostate weight (compared to intact animals) [1, 3]: 80%
- seminal vesicle weight (compared to intact animals) [1, 3]: 70%
- changes in levator ani muscle weights ([1]; 6 days, 5, 10, 25 mg/kg s.c.): none of these doses caused any significant changes
- increase of levator ani muscle weight ([1]; 9 days, 25 mg/kg s.c.): 12%
- prostate weight (compared to intact animals) [1, 4]: 50%
- seminal vesicle weight (compared to intact animals) [1, 4]: 45%
- levator ani muscle weight (compared to intact animals) ([1]; 9 days, highest dose group (25 mg/kg) s.c.): 112%
- changes in levator ani muscle weights ([1]; 9 days, most of the dose groups s.c.): no significant changes
- effect on levator ani muscle weight (intact male rats): without affecting
- prostate weight (intact male rats): 63 % of that observed in vehicle-treated intact animals
- atrophy in prostate on increasing the dose 100-fold ([2]; 10 mg/kg compared to 1000 mg/kg as printed): did not significantly increase
- reduction of prostate weight (normalized to body weight) compared to the intact control ([2]; all treatment groups, oral gavage once daily for 7 days, p<0.01): greater than 48.4%
